In ChEMBL document CHEMBL6134870 (J Med Chem, 2025):

Legend:
[1] = Cytotoxicity against BoNT/A treated human iPSC cells assessed as cell rounding at 100 uM incubated for 7.5 hrs by Western blot analysis; assay type: toxicity, cell-based
HEK293 = experiment: Cytotoxicity against HEK293 cells assessed as reduction in cell viability at 2 to 128 uM incubated for 24 hrs by MTS assay; assay type: toxicity, cell-based; details: human, hek293, 24 h, dose 2-128 µM
[2] = biological target: T1, Matrix metalloproteinase-19 (Homo sapiens, UniProt Q99542); experiment: Inhibition of MMP-19 (unknown origin) at 25 uM; assay type: toxicity
T1 sequence (Q99542 whole entry): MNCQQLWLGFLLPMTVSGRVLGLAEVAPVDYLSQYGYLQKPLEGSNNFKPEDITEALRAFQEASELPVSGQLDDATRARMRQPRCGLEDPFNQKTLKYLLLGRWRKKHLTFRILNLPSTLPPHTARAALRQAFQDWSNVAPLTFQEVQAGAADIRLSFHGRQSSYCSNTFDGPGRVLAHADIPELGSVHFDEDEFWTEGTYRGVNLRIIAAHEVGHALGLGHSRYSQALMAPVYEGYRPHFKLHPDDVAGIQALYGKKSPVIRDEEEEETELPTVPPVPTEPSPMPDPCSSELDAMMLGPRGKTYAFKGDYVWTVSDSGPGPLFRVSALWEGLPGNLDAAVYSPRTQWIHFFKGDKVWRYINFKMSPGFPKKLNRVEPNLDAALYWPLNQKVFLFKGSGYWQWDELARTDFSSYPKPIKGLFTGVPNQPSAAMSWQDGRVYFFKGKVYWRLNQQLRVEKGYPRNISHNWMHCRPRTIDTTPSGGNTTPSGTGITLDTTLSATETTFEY

[3] = biological target: Matrix metalloproteinase-14 (Homo sapiens, UniProt P50281); experiment: Inhibition of MMP-14 (unknown origin) at 25 uM; assay type: toxicity
[4] = human, serum, 2 h

Row | Compound | Activity [1] | t1/2 [4] | other results
1 | FC(F)(F)c1ccc(-c2ccc3c(c2)CC(=S)N3)c(C(F)(F)F)c1 | Toxic | – | Activity (HEK293): Non-toxic
2 | FC(F)(F)c1ccc(-c2cc3c(cc2Cl)NC(=S)C3)c(C(F)(F)F)c1 | – | – | Activity [2]: Active; Activity [3]: Active
3 | FC(F)(F)c1ccc(-c2ccc3c(c2)CC(=S)N3)c(C2CC2)c1 | Toxic | – | –
4 | Cn1c(SC(=O)C(C)(C)C)cc2cc(C(=O)Nc3ccccc3)ccc21 | – | 1.2 h | –
5 | C=C=CC(=O)NCCCc1ccn2c(=O)cc(CNCc3ccc(-c4ccccc4)cc3)nc2c1O | – | 6.4 h | –
